According to ChEMBL document CHEMBL5390237, “Discovery of Selective Histone Deacetylase 1 and 2 Inhibitors: Screening of a Focused Library Constructed by Click Chemistry, Kinetic Binding Analysis, and Biological Evaluation” (J Med Chem, 2023):

Target: Histone deacetylase 2 (Homo sapiens, UniProt Q92769)
Experiment: Inhibition of full-length recombinant human C-terminal GST tagged HDAC2 expressed in Sf9 insect cells using aminoluciferin peptide substrate at 100 nM preincubated for 3 hrs followed by substrate addition and measured after 30 mins by HDAC-Glo I/II chemiluminescence assay
Details: time 3.5 hrs

Chain of Histone deacetylase 2 (Q92769 whole entry): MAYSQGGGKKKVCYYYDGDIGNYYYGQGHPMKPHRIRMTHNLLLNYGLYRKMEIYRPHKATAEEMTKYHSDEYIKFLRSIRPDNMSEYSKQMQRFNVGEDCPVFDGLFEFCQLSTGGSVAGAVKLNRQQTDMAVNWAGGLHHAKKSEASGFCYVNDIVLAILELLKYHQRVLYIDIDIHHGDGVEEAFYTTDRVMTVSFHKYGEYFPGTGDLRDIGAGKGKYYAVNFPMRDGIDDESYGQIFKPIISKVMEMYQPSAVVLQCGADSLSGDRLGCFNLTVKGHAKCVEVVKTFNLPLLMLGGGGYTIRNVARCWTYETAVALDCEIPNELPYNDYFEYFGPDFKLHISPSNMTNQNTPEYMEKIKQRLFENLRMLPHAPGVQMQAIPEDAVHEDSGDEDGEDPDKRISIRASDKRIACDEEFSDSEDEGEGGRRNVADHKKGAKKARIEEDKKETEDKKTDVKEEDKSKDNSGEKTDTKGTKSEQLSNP

| SMILES | inhibition [%] |
| --- | --- |
| Nc1ccc(-c2ccsc2)cc1NC(=O)CCc1cn(Cc2cc3ccccc3s2)nn1 | 3 |
| Nc1ccc(-c2ccsc2)cc1NC(=O)CCc1cn(CCCc2ccccc2)nn1 | 19 |
| Cc1ccc(CCn2cc(CCC(=O)Nc3cc(-c4ccsc4)ccc3N)nn2)cc1 | 24 |
| Nc1ccc(-c2ccsc2)cc1NC(=O)CCc1cn(C[S+]([O-])c2ccccc2)nn1 (centres undefined) | 8 |
| Nc1ccc(-c2ccc(F)cc2)cc1NC(=O)CCc1cn(CC23CC4CC(CC(C4)C2)C3)nn1 | 0 |
| Nc1ccc(-c2ccccc2)cc1NC(=O)CCc1cn(Cc2ccc(OC(F)(F)F)cc2)nn1 | 0 |
| Nc1ccc(-c2ccc(F)cc2)cc1NC(=O)CCc1cn(CCCCCCC(=O)O)nn1 | 6 |
| Nc1ccc(-c2cccs2)cc1NC(=O)CCc1cn(CCc2ccc(C(=O)O)cc2)nn1 | 35 |
| Nc1ccc(-c2ccccc2)cc1NC(=O)c1cn(CCc2ccc(-c3ccccc3)cc2)nn1 | 0 |
| Nc1ccc(-c2ccsc2)cc1NC(=O)c1cn(CCN2CCOCC2)nn1 | 0 |
| Nc1ccc(-c2cccnc2)cc1NC(=O)CCc1cn(CCc2ccsc2)nn1 | 1 |
| Nc1ccc(-c2ccsc2)cc1NC(=O)c1cn(CC2CCCCC2)nn1 | 0 |
| Nc1ccc(-c2ccc(F)cc2)cc1NC(=O)c1cn(Cc2ccc(C(=O)O)cc2)nn1 | 65 |
| Nc1ccc(-c2cccs2)cc1NC(=O)CCc1cn(CCCCCC(=O)O)nn1 | 6 |
| Nc1ccc(-c2ccccc2)cc1NC(=O)c1cn(-c2ccc(Br)cc2)nn1 | 0 |
| Cc1csc(CCn2cc(CCC(=O)Nc3cc(-c4ccc(F)cc4)ccc3N)nn2)n1 | 37 |
| Cc1ccc(-n2cc(CCC(=O)Nc3cc(-c4ccc(F)cc4)ccc3N)nn2)cc1C | 0 |
| Nc1ccc(-c2ccsc2)cc1NC(=O)CCc1cn(CCc2cccc(Cl)c2)nn1 | 15 |
| Nc1ccc(-c2ccsc2)cc1NC(=O)CCc1cn(CCc2ccccn2)nn1 | 12 |
| Nc1ccc(-c2ccc(F)cc2)cc1NC(=O)CCc1cn(Cc2cccc(C(=O)O)c2)nn1 | 0 |
| Nc1ccc(-c2ccccc2)cc1NC(=O)c1cn(-c2ccccc2-c2ccccc2)nn1 | 0 |
| Nc1ccc(-c2cccnc2)cc1NC(=O)CCc1cn(CCCCC(=O)O)nn1 | 0 |
| Nc1ccc(-c2cccnc2)cc1NC(=O)CCc1cn(Cc2ccc3ccccc3c2)nn1 | 19 |
| Nc1ccc(-c2cccnc2)cc1NC(=O)CCc1cn(CCN2CCOCC2)nn1 | 0 |
| Nc1ccc(-c2ccsc2)cc1NC(=O)CCc1cn(Cc2ccc(C(=O)O)cc2)nn1 | 31 |
| Nc1ccc(-c2cccs2)cc1NC(=O)CCc1cn(CCc2ccc([N+](=O)[O-])cc2)nn1 | 27 |
| Nc1ccc(-c2cccnc2)cc1NC(=O)CCc1cn(Cc2ccc(OC(F)(F)F)cc2)nn1 | 3 |

| SMILES | inhibition [%] |
| --- | --- |
| Nc1ccc(-c2ccccc2)cc1NC(=O)c1cn(CCC23CC4CC(CC(C4)C2)C3)nn1 | 0 |
| Nc1ccc(-c2cccnc2)cc1NC(=O)CCc1cn(CC23CC4CC(CC(C4)C2)C3)nn1 | 2 |
| Nc1ccc(-c2ccccc2)cc1NC(=O)CCc1cn(CCC2CCCCC2)nn1 | 0 |
| Nc1ccc(-c2ccccc2)cc1NC(=O)c1cn(CCCCCC(=O)O)nn1 | 0 |
| Nc1ccc(-c2ccsc2)cc1NC(=O)CCc1cn(-c2ccccc2-c2ccccc2)nn1 | 2 |
| Cc1ccc(-n2cc(C(=O)Nc3cc(-c4ccc(F)cc4)ccc3N)nn2)cc1C | 11 |
| Nc1ccc(-c2ccsc2)cc1NC(=O)CCc1cn(/C=C/c2ccccc2)nn1 | 2 |
| Cc1cccc(C)c1NC(=O)Cn1cc(CCC(=O)Nc2cc(-c3cccs3)ccc2N)nn1 | 19 |
| Nc1ccc(-c2cccnc2)cc1NC(=O)CCc1cn(Cc2cccc(-c3ccccc3)c2)nn1 | 0 |
| Nc1ccc(-c2ccsc2)cc1NC(=O)c1cn(CCc2ccccc2C(F)(F)F)nn1 | 0 |
| Nc1ccc(-c2ccsc2)cc1NC(=O)CCc1cn(-c2ccc(O)cc2)nn1 | 16 |
| Nc1ccc(-c2ccccc2)cc1NC(=O)CCc1cn(CCCCCC(=O)O)nn1 | 0 |
| COc1ccc(Cn2cc(CCC(=O)Nc3cc(-c4ccsc4)ccc3N)nn2)cc1 | 24 |
| CCc1ccc(Cn2cc(CCC(=O)Nc3cc(-c4ccccc4)ccc3N)nn2)cc1 | 1 |
| Nc1ccc(-c2ccccc2)cc1NC(=O)c1cn(CCc2ccc(C(F)(F)F)cc2)nn1 | 0 |
| COc1ccc(Cn2cc(CCC(=O)Nc3cc(-c4ccccc4)ccc3N)nn2)cc1 | 6 |
| Nc1ccc(-c2ccsc2)cc1NC(=O)CCc1cn(CCc2ccccc2Cl)nn1 | 11 |
| Nc1ccc(-c2cccnc2)cc1NC(=O)CCc1cn(CCc2cccc(C(F)(F)F)c2)nn1 | 13 |
| Nc1ccc(-c2ccccc2)cc1NC(=O)c1cn(CC(=O)Nc2ccc(F)cc2)nn1 | 0 |
| Nc1ccc(-c2ccsc2)cc1NC(=O)c1cn(CCc2cccc([N+](=O)[O-])c2)nn1 | 1 |
| Nc1ccc(-c2cccs2)cc1NC(=O)c1cccc(-c2cn(CCC34CC5CC(CC(C5)C3)C4)nn2)c1 | 9 |
| Nc1ccc(-c2ccc(F)cc2)cc1NC(=O)CCc1cn(/C=C/c2ccccc2)nn1 | 3 |
| Nc1ccc(-c2ccccc2)cc1NC(=O)CCc1cn(CCc2c[nH]c3ccccc23)nn1 | 20 |
| Nc1ccc(-c2ccc(F)cc2)cc1NC(=O)c1cn(CCc2ccc(C(F)(F)F)cc2)nn1 | 0 |
| Nc1ccc(-c2ccsc2)cc1NC(=O)c1cn(C[S+]([O-])c2ccccc2)nn1 (centres undefined) | 10 |
| Cc1csc(CCn2cc(C(=O)Nc3cc(-c4ccc(F)cc4)ccc3N)nn2)n1 | 10 |

The remaining lines, values ahead:

| inhibition [%] | SMILES |
| --- | --- |
| 3 | COc1ccccc1CCn1cc(-c2cccc(C(=O)Nc3cc(-c4cccs4)ccc3N)c2)nn1 |
| 1 | COc1ccc(CCn2cc(-c3cccc(C(=O)Nc4cc(-c5cccs5)ccc4N)c3)nn2)cc1 |
| 17 | Nc1ccc(-c2cccs2)cc1NC(=O)c1cn(CS(=O)(=O)c2ccccc2)nn1 |
| 12 | Nc1ccc(-c2cccs2)cc1NC(=O)CCc1cn(-c2ccc(O)cc2)nn1 |
| 0 | Nc1ccc(-c2cccs2)cc1NC(=O)c1ccc(-c2cn(CCCCCCC(=O)O)nn2)cc1 |
| 0 | Nc1ccc(-c2cccs2)cc1NC(=O)c1cccc(-c2cn(CCc3ccsc3)nn2)c1 |
| 17 | Nc1ccc(-c2cccs2)cc1NC(=O)c1cn(Cc2ccc3ccccc3c2)nn1 |
| 5 | Nc1ccc(-c2cccs2)cc1NC(=O)c1ccc(-c2cn(Cc3ccc(OC(F)(F)F)cc3)nn2)cc1 |
| 25 | Nc1ccc(-c2cccs2)cc1NC(=O)c1ccc(-c2cn(Cc3cccc(C(=O)O)c3)nn2)s1 |
| 4 | Nc1ccc(-c2cccs2)cc1NC(=O)c1cccc(-c2cn(CCCc3ccccc3)nn2)c1 |
| 63 | Nc1ccc(-c2cccs2)cc1NC(=O)c1ccc(-c2cn(Cc3nc4ccccc4[nH]3)nn2)s1 |
| 4 | Nc1ccc(-c2ccc(F)cc2)cc1NC(=O)c1cn(-c2cccc3ccccc23)nn1 |
| 12 | Nc1ccc(-c2cccs2)cc1NC(=O)c1ccc(-c2cn(Cc3ccc4ccccc4c3)nn2)cc1 |
| 7 | Nc1ccc(-c2cccs2)cc1NC(=O)c1ccc(-c2cn(CCC3CCCCC3)nn2)cc1 |
| 5 | Nc1ccc(-c2ccc(F)cc2)cc1NC(=O)c1cn(CCc2c[nH]c3ccccc23)nn1 |
| 0 | Nc1ccc(-c2cccs2)cc1NC(=O)CCc1cn(CCc2ccccc2C(F)(F)F)nn1 |
| 0 | Nc1ccc(-c2ccc(F)cc2)cc1NC(=O)c1cn(Cc2ccc(-c3ccccc3)cc2)nn1 |
| 51 | Nc1ccc(-c2cccs2)cc1NC(=O)c1ccc(-c2cn(CCCCC(=O)O)nn2)s1 |
| 24 | Cc1csc(CCn2cc(-c3cccc(C(=O)Nc4cc(-c5cccs5)ccc4N)c3)nn2)n1 |
| 0 | CCc1ccc(Cn2cc(C(=O)Nc3cc(-c4ccccc4)ccc3N)nn2)cc1 |
| 0 | CCc1ccc(Cn2cc(-c3ccc(C(=O)Nc4cc(-c5cccs5)ccc4N)cc3)nn2)cc1 |

| inhibition [%] | SMILES |
| --- | --- |
| 3 | Nc1ccc(-c2cccs2)cc1NC(=O)c1ccc(-c2cn(CCc3ccc(Cl)cc3)nn2)s1 |
| 36 | Nc1ccc(-c2cccs2)cc1NC(=O)c1ccc(-c2cn(CCCCC(=O)O)nn2)cc1 |
| 30 | Nc1ccc(-c2cccs2)cc1NC(=O)c1ccc(-c2cn(Cc3ccc4ccccc4n3)nn2)s1 |
| 0 | Nc1ccc(-c2cccs2)cc1NC(=O)c1cccc(-c2cn(-c3cccc4ccccc34)nn2)c1 |
| 71 | Nc1ccc(-c2cccs2)cc1NC(=O)c1ccc(-c2cn(CCc3ccccn3)nn2)s1 |
| 50 | Nc1ccc(-c2cccs2)cc1NC(=O)c1ccc(-c2cn(CC(=O)Nc3ccc(F)cc3)nn2)cc1 |
| 0 | Nc1ccc(-c2cccs2)cc1NC(=O)c1cccc(-c2cn(CCc3cccc(Cl)c3)nn2)c1 |
| 29 | COc1ccccc1CCn1cc(-c2ccc(C(=O)Nc3cc(-c4cccs4)ccc3N)cc2)nn1 |
| 6 | COc1ccc(-n2cc(C(=O)Nc3cc(-c4cccs4)ccc3N)nn2)cc1 |
| 2 | CCc1ccc(Cn2cc(-c3ccc(C(=O)Nc4cc(-c5cccs5)ccc4N)s3)nn2)cc1 |
| 0 | Nc1ccc(-c2cccs2)cc1NC(=O)c1ccc(-c2cn(CCC3CCCC3)nn2)cc1 |
| 6 | Nc1ccc(-c2ccsc2)cc1NC(=O)c1cn(CCc2c[nH]c3ccccc23)nn1 |
| 6 | Nc1ccc(-c2cccs2)cc1NC(=O)CCc1cn(Cc2ccc(Oc3ccccc3)cc2)nn1 |
| 0 | Nc1ccc(-c2cccs2)cc1NC(=O)c1cn(-c2ccc(O)cc2)nn1 |
| 13 | Cc1ccccc1CCn1cc(CCC(=O)Nc2cc(-c3cccs3)ccc2N)nn1 |
| 0 | Nc1ccc(-c2ccc(F)cc2)cc1NC(=O)c1cn(Cc2cccc(-c3ccccc3)c2)nn1 |
| 42 | Nc1ccc(-c2cccs2)cc1NC(=O)c1ccc(-c2cn(CCc3ccc([N+](=O)[O-])cc3)nn2)cc1 |
| 0 | Nc1ccc(-c2cccs2)cc1NC(=O)c1ccc(-c2cn(CCCCCc3ccccc3)nn2)cc1 |
| 7 | Nc1ccc(-c2cccs2)cc1NC(=O)CCc1cn(CCCCCc2ccccc2)nn1 |
| 16 | Nc1ccc(-c2cccs2)cc1NC(=O)c1ccc(-c2cn(CCCc3ccccc3)nn2)s1 |
